Consider three molecules from US20240174693A1, “SOMATOSTATIN RECEPTOR SUBTYPE 4 (SSTR4) AGONISTS AND THEIR APPLICATIONS” (Humanwell Pharmaceutical US, priority 2022, published 2024).

A short description of data set [1]: Log D octanol / potassium phosphate buffer. In kind it is physicochemical. The following applies: octanol / potassium phosphate buffer (pH 7.4), 25° C. On the procedure: 10 μL of 10 mM stock solutions were placed into a 96-well plate. 300 μL of octanol into the plate was added to the plate. The plate was sealed and agitated on a plate shaker for 5 minutes. The plate was centrifuged at 2000 rpm for 5 minutes. The seal was removed and 600 μL of potassium phosphate buffer (pH 7.4) was added. The plate was sealed, and the two phases were mixed on the plate shaker vigorously for 1 hour at 25° C. The plate was centrifuged at 2000 rpm for 5 minutes after mixing and the seal was removed. 10 μL of water phase samples from the water phase plate was aspirated and mixed with 10 μL of water (1:2 dilution). 180 μL of 50% Ethanol was added into the water phase sample plate (1:10 dilution) to achieve 1:20 dilution. 50 μL of water phase sample was mixed with 100 μL of 50% Ethanol (containing IS) into the water phase sample plate to achieve 1:60 dilution. 10 μL from the octanol phase (the upper phase) was transfered into a new 96-well plate and 190 μL 50% Ethanol (1:20 dilution) was added. 10 μL of 1:20 diluted octanol samples were transferred into a new 96 deep-well plate and 390 μL 50% Ethanol (1:40 dilution) was added to achieve 1:800 dilution. 50 μL of 1:800 diluted octanol samples were transferred into a new 96-well plate again and 100 μL 50% ethanol with IS was added to achieve 1:2400 dilution. Samples were ready for LC/MS analysis.

Another data set has as its system KM mice. Description: Acetic acid induced writhing test. The following applies: 30 mg/kg s.c.; for No. of writhing's: 0.6% acetic acid 15 min after dosing, 30-minute period; for Percentage of Inhibition / Significant compared to the model group: writhing. Format: in vivo. Here is the method: Fifteen minutes after administration, a 0.6% acetic acid solution (5 mL/kg) was injected into the abdominal cavity. The mice were then placed in an observation box, and the number of writhing episodes was recorded within a 30-minute period. The assessment of pain intensity was based on the observation of the mice's writhing behavior.
Background: Writhing tests count abdominal constrictions after an irritant is injected.

The target of the next data set is T1, CYP3A4 (Homo sapiens, UniProt P08684).
T1 construct: from tissue; host or cells: liver microsomes (HLM)
Briefly: CYP inhibition in HLM, CYP3A4. Format: in vitro ADME. Conditions: read-out: CYP inhibition (IC50 um) 3A. Here is the method: 0.1 M potassium phosphate buffer (K-buffer), pH 7.4 was preheated. K-buffer was prepared by mixing 9.5 mL Stock A into 40.5 mL Stock B. The total volume was brought to 500 mL with Milli-Q water. The buffer was titrated with KOH or H3PO4 to pH 7.4. Stock A (1 M monobasic potassium phosphate) was prepared by adding 136.5 g of monobasic potassium phosphate into 1 L of Milli-Q water. Stock B (1 M dibasic potassium phosphate) was prepared by adding 174.2 g of dibasic potassium phosphate in 1 L of Milli-Q water.
Serial dilution for test compound and reference inhibitors (400×) was prepared in a 96-well plate. 8 μL of 10 mM test compounds was transferred to 12 μL of ACN. Inhibitor spiking solution was prepared for CYP1A2, CYP2C9 and CYP2D6 in cocktail by adding 12 μL of 1 mM α-Naphthoflavon, 10 μL of 40 mM Sulfaphenazole, 10 μL of 10 mM Quinidine, and 8 μL of DMSO. Individual inhibitor spiking solution for CYP3A4 and CYP2C19 was prepared by adding 8 μL of DMSO stock to 12 μL of ACN. 1:3 serial dilutions were performed in DMSO:ACN mixture (v/v: 40:60).
NADPH cofactor was prepared by dissolving 66.7 mg NADPH in 10 mL 0.1 M K-buffer, pH7.4. 4×substrate (2 mL for each isoform) was prepared. HLM was added were required on ice. 0.2 mg/mL HLM solution was prepared using 10 μL of 20 mg/mL to 990 μL of 0.1 M K-buffer on ice. 400 μL of 0.2 mg/mL HLM were added to the assay wells and then 2 μL of 400×test compound set were added into the designated wells on ice. 200 μL of 0.2 mg/mL HLM was added to the assay wells and followed by 1 μL of serially diluted reference inhibtor solution into the designated wells on ice. The following solutions were added in duplicated in a 96-well plate on ice: 30 μL of 2×test compound and reference compound in 0.2 mg/mL HLM solution and 15 μL of 4×substrate solution. The 96-well assay plate and NADPH solution were pre-incubated at 37° C. for 5 minutes. 15 μL of pre-warmed 8 mM NADPH solution was added to into the assay plates to initiate the reaction. The assay plate was incubated at 37° C. 5 mins, 10 mins, and 45 mins. […]

The next data set can be described thus: Thermodynamic solubility. In kind it is physicochemical. Conditions: aqueous buffer, thermodynamic from solid, PBS(Ph 7.4), equilibrated over night at room temperature. On the procedure:
Assay buffer was added into compound powder to make 4 mg/ml solution. Sample tubes were shaken for 1 hour at 1000 rpm, then equilibrated over night at room temperature. Samples were centrifuged for 10 minutes at 12000 rpm to precipitate out un-dissolved particles. Supernatants were transferred to new tubes. Concentrations of the supernatants after centrifugation were determined by LCMSMS detection.

Setting [2] is: read-out: Thermodynamic Solubility Solubility.
Setting [3] is: read-out: Thermodynamic Solubility Solubility (um).

Structures are written as SMILES. Like-named read-outs stand apart in the source and are kept apart here. Bounds are passed on as bounds.

T1 sequence (P08684 whole entry): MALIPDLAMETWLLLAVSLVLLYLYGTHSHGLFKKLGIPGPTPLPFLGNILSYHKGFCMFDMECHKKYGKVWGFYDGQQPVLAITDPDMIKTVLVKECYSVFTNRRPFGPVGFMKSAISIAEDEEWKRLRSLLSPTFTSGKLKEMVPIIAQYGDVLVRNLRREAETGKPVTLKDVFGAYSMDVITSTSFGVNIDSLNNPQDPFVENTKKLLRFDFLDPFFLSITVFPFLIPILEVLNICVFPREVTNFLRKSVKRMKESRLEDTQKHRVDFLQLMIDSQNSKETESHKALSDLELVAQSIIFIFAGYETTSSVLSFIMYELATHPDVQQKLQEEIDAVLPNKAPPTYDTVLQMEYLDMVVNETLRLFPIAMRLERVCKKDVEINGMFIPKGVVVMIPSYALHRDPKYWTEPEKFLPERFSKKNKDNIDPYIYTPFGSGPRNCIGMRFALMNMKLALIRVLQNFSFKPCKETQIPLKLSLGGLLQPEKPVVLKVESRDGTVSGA

A word on the logD: it is lipophilicity at a set pH, counting ionised and neutral species. A low value points to a more hydrophilic compound. Usually IC50 stands for the point on the concentration scale where inhibition reaches its midpoint. One may read the thermodynamic solubility as solubility found after equilibrating the solid with the medium. The molecule `CC(C)(NC(=O)[C@H]1[C@@H]2CNC[C@H]1C2)c1ncc2c(Cl)cccn12` [Compound 7, (1R,5S,6r)-N-(2-(8-chloroimidazo[1,5-a]pyridin-3-yl)propan-2-yl)-3-azabicyclo[3.1.1]heptane-6-carboxamide] returned a logD in data set [1] of -0.07. Moreover, in the data set on KM mice, the “No. of writhing's” value amounted to 10, the “Percentage of Inhibition” value came to 69.16% and the “Significant compared to the model group” value is on record as “Yes”. The IC50 on CYP3A4 was greater than 10 µM. Moreover, the thermodynamic solubility in the data set “Thermodynamic solubility” (setting [2]) is 1.68 mg/mL. In “Thermodynamic solubility” (setting [3]), the solubility (thermodynamic) was found to be 4.44 mM.

As for `CC(C)(NC(=O)[C@H]1[C@@H]2CNC[C@H]1C2)c1ncc2c(Br)cccn12` [Compound 8, (1R,5S,6r)-N-(2-(8-bromoimidazo[1,5-a]pyridin-3-yl)propan-2-yl)-3-azabicyclo[3.1.1]heptane-6-carboxamide], the logD in data set [1] was -0.15. In the data set with KM mice, the “No. of writhing's” value is listed as 3, the “Percentage of Inhibition” value is 86.26% and the “Significant compared to the model group” value was “Yes”. Further, the IC50 at CYP3A4 is greater than 10 µM. The thermodynamic solubility in the data set “Thermodynamic solubility” (setting [2]) was found to be 2.08 mg/mL. Besides, in “Thermodynamic solubility” (setting [3]), the solubility (thermodynamic) was determined as 4.92 mM.

The molecule `CC(C)(NC(=O)[C@H]1[C@@H]2CNC[C@H]1C2)c1nc(C2CC2)c2ccccn12` [Compound 9, (1R,5S,6r)-N-(2-(1-cyclopropylimidazo[1,5-a]pyridin-3-yl)propan-2-yl)-3-azabicyclo[3.1.1]heptane-6-carboxamide] returned a logD in data set [1] of -0.11. Also, in the data set on KM mice, the “No. of writhing's” value was determined as 8, the “Percentage of Inhibition” value turned out to be 62.34% and the “Significant compared to the model group” value is listed as “Yes”. The IC50 at CYP3A4 is greater than 10 µM. Moreover, in “Thermodynamic solubility” (setting [2]), the solubility (thermodynamic) was determined as 2.25 mg/mL. The solubility (thermodynamic) in “Thermodynamic solubility” (setting [3]) is 6 mM.
